For 13 compounds, IC50 results are on record in publication PMC8410435, “Evaluation of Neuraminidase Inhibitory Activity of Compounds and Extracts from Traditional Medicines by HPLC-FLD” (International Journal of Analytical Chemistry, 2021).

The target in one test is T1, neuraminidase (NA), from Sigma-Aldrich.
T1 construct: gene nanH
It is filed as biochemical. To be noted: read-out: HPLC-FLD.
With `COC(=O)C1=CO[C@@H](O[C@@H]2O[C@H](CO)[C@@H](O)[C@H](O)[C@H]2O)[C@@H]2C(CO)=CC[C@H]12` [compound 1, Geniposide], the IC50 came to 970 ± 90 µM.

As to `O=C(/C=C/c1ccc(O)c(O)c1)O[C@@H]1C[C@](O)(C(=O)O)C[C@@H](O)[C@H]1O` [compound 3, Chlorogenic acid], the IC50 was determined as 2560 ± 60 µM.

For `O=C(/C=C/c1ccc(O)c(O)c1)O[C@H]1[C@H](O)C[C@](O)(C(=O)O)C[C@H]1O` [compound 4, Cryptochlorogenin acid], the IC50 was determined as 2200 ± 10 µM.

In the case of `O=C(/C=C/c1ccc(O)c(O)c1)O[C@@H]1[C@H](O)C[C@@](O)(C(=O)O)C[C@H]1OC(=O)/C=C/c1ccc(O)c(O)c1` [compound 6, Isochlorogenic acid C], the IC50 is 1170 ± 50 µM.

Regarding `O=C(O)[C@H]1O[C@@H](Oc2cc3oc(-c4ccccc4)cc(=O)c3c(O)c2O)[C@H](O)[C@@H](O)[C@@H]1O` [compound 7, Baicalin], the IC50 turned out to be 500 ± 40 µM.

On to `O=c1cc(-c2ccccc2)oc2cc(O)c(O)c(O)c12` [compound 8, Baicalein], for which the IC50 turned out to be 110 ± 10 µM.

With `CC(C)=CCOc1c2ccoc2cc2oc(=O)ccc12` [compound 9, Isoimpemtorin], the IC50 came out at 660 ± 160 µM.

As to `O=c1ccc2cc3ccoc3cc2o1` [compound 10, Psoralen], the IC50 worked out at 1000 ± 630 µM.

In the case of `O=c1ccc2cc3ccoc3c(O)c2o1` [compound 12, Xanthotol], the IC50 amounted to 1050 ± 70 µM.

With `COc1c2ccoc2cc2oc(=O)ccc12` [compound 13, Bergapten], the IC50 came to 2800 ± 160 µM.

`COc1ccc2ccc(=O)oc2c1CC=C(C)C` [compound 14, Osthole]: the IC50 was 2140 ± 150 µM.

Staying with this test, now noted: read-out: NA enzyme-based inhibitory assays.
On to `COC(=O)C1=CO[C@@H](O[C@@H]2O[C@H](CO)[C@@H](O)[C@H](O)[C@H]2O)[C@H]2[C@@H]1[C@H](O)C[C@]2(C)O` [compound 2, Shanzhiside methyl ester], for which the IC50 is 10 µM.

A further test shares this target. It is filed as biochemical. To be noted: read-out: HPLC-FLD. This is another data set of the same source.
Regarding `O=c1ccc2ccc3occc3c2o1` [compound 11, Angelicin], the IC50 was determined as 2550 ± 380 µM.
